# Results taken from patent publication US20080004253A1, “Thiazolopyrimidine modulators of TRPV1” (priority 2006, published 2008).
# Tests used:
# human TRPV1 = biological target: T1, human TRPV1 (Homo sapiens, UniProt Q8NER1); test: Functional assay: block of capsaicin-induced Ca2+ influx, human assay (hTRPV1/HEK293, FLIPR); assay type: cell-based; conditions: hTRPV1/HEK293 cells, 150 nM capsaicin challenge, Fluo-3 fluorescence; mean; > value = solubility limit in assay medium
# T1 construct: expressed in transfected cells; host or cells: HEK293 (hTRPV1/HEK293), zeocin selection
# Method in brief: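 HEK293 cells stably expressing human TRPV1, fluo3-loaded, preincubated 30 min with compound (serial 3-fold dilutions from 10 μM, duplicate) in 20 μM Ca2+ buffer. Capsaicin response taken as fluo3 fluorescence change before vs 100 s after agonist; IC50 by non-linear regression, mean values; free base or TFA salt.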
# rat TRPV1 = biological target: T2, rat TRPV1 (Rattus norvegicus, UniProt O35433); test: Functional assay: block of capsaicin-induced Ca2+ influx, rat assay (rTRPV1/HEK293, FLIPR); assay type: cell-based; conditions: rTRPV1/HEK293 cells, capsaicin challenge, Fluo-3 fluorescence; mean; > value = solubility limit in assay medium
# T2 construct: expressed in transfected cells; host or cells: HEK293 (rTRPV1/HEK293), geneticin selection
# Method in brief: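 Compounds, as free base or TFA salt, tested from 10 μM in three-fold steps on rTRPV1-transfected HEK293 cells, with 30 min preincubation in low-calcium (20 μM) buffer. Capsaicin-evoked Ca2+ influx measured by FLIPR fluo3 signal before and 100 s after addition. Averaged IC50 from non-linear fits.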
# T1 sequence (Q8NER1 whole entry): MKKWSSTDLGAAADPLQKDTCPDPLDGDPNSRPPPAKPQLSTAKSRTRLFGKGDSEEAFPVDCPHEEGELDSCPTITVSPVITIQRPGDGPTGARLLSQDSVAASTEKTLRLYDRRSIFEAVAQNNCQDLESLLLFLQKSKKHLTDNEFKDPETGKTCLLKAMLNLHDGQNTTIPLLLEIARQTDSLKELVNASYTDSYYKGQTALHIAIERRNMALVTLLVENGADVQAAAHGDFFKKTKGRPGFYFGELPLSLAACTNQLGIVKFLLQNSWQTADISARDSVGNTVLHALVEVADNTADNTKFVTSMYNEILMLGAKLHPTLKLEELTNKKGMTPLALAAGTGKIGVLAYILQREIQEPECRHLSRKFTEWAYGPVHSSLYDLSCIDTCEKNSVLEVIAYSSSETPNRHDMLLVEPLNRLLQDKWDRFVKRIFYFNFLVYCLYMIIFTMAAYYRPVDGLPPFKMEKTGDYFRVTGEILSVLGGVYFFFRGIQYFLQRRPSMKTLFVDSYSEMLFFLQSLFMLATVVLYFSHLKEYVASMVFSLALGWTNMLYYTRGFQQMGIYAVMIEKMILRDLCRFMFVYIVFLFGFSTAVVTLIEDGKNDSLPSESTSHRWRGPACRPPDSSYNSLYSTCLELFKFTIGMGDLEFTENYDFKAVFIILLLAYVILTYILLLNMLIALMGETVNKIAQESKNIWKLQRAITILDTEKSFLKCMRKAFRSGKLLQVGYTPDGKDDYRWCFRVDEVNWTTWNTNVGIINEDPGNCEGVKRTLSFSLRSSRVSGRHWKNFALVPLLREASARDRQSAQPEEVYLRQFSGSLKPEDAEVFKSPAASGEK
# T2 sequence (O35433 whole entry): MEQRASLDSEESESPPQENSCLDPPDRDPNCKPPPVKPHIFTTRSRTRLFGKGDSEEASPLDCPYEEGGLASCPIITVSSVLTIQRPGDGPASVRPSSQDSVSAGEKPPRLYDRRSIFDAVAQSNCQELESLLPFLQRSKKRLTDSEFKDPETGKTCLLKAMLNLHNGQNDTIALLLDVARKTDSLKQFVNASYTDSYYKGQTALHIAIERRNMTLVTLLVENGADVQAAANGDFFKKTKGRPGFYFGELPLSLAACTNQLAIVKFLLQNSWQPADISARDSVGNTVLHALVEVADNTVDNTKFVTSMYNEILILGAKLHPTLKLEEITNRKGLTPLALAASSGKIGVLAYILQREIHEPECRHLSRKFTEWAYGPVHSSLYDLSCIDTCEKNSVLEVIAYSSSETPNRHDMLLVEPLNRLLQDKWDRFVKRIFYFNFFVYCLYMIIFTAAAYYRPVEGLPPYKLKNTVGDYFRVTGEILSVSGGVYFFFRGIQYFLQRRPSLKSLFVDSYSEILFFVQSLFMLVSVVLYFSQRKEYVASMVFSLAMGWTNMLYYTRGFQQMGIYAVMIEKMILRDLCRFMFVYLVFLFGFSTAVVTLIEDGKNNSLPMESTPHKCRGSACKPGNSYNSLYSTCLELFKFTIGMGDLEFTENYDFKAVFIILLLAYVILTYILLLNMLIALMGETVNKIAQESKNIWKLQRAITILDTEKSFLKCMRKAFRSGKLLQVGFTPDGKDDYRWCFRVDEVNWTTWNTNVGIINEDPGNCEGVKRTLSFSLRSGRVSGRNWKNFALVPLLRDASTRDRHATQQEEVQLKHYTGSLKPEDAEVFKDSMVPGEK
smiles,measurement,setting,value
"Cc1nc(Nc2ccc(S(=O)(=O)N3CCCC3)cc2)c2nc(Nc3c(Cl)cccc3Cl)sc2n1 [Example 73, N^2-(2,6-Dichloro-phenyl)-5-methyl-N^7-[4-(pyrrolidine-1-sulfonyl)-phenyl]-thiazolo[5,4-d]pyrimidine-2,7-diamine]",IC50,human TRPV1,1 nM
same,IC50,rat TRPV1,1 nM
"Cc1nc(Nc2ccc(C(C)(C)O)cc2)c2nc(Nc3c(Cl)cccc3Cl)sc2n1 [Example 74, 2-{4-[2-(2,6-Dichloro-phenylamino)-5-methyl-thiazolo[5,4-d]pyrimidin-7-ylamino]-phenyl}-propan-2-ol]",IC50,human TRPV1,1 nM
same,IC50,rat TRPV1,0.05 nM
"CN(C)S(=O)(=O)c1ccc(Nc2ncnc3sc(Nc4c(Cl)cccc4Cl)nc23)cc1 [Example 75, 4-[2-(2,6-Dichloro-phenylamino)-thiazolo[5,4-d]pyrimidin-7-ylamino]-N,N-dimethyl-benzenesulfonamide]",IC50,human TRPV1,1 nM
same,IC50,rat TRPV1,1 nM
"O=S(=O)(c1ccc(Nc2ncnc3sc(Nc4c(Cl)cccc4Cl)nc23)cc1)N1CCCC1 [Example 76, N^2-(2,6-Dichloro-phenyl)-N^7-[4-(pyrrolidine-1-sulfonyl)-phenyl]-thiazolo[5,4-d]pyrimidine-2,7-diamine]",IC50,human TRPV1,1 nM
same,IC50,rat TRPV1,1 nM
"Cc1nc(Nc2ccc(S(=O)(=O)C(F)(F)F)cc2)c2nc(Nc3c(Cl)cccc3Cl)sc2n1 [Example 77, N^2-(2,6-Dichloro-phenyl)-5-methyl-N^7-(4-trifluoromethanesulfonyl-phenyl)-thiazolo[5,4-d]pyrimidine-2,7-diamine]",IC50,human TRPV1,1 nM
same,IC50,rat TRPV1,2 nM
"Cc1nc(Nc2ccc(S(C)(=O)=O)cc2)c2nc(Nc3c(Cl)cccc3Cl)sc2n1 [Example 78, N^2-(2,6-Dichloro-phenyl)-N^7-(4-methanesulfonyl-phenyl)-5-methyl-thiazolo[5,4-d]pyrimidine-2,7-diamine]",IC50,human TRPV1,2 nM
same,IC50,rat TRPV1,1 nM
"CC(C)CNc1nc(Nc2ccc(C(F)(F)F)cc2)c2nc(Nc3c(Cl)cccc3Cl)sc2n1 [Example 79, N^2-(2,6-Dichloro-phenyl)-N^5-isobutyl-N^7-(4-trifluoromethyl-phenyl)-thiazolo[5,4-d]pyrimidine-2,5,7-triamine]",IC50,human TRPV1,2 nM
same,IC50,rat TRPV1,1 nM
"O=S(=O)(c1ccc(Nc2ncnc3sc(Nc4c(Cl)cccc4Cl)nc23)cc1)N1CCOCC1 [Example 80, N^2-(2,6-Dichloro-phenyl)-N^7-[4-(morpholine-4-sulfonyl)-phenyl]-thiazolo[5,4-d]pyrimidine-2,7-diamine]",IC50,human TRPV1,2 nM
same,IC50,rat TRPV1,1 nM
"Cc1nc(Nc2ccc(S(=O)(=O)N(C)C)cc2)c2nc(Nc3c(Cl)cccc3Cl)sc2n1 [Example 81, 4-[2-(2,6-Dichloro-phenylamino)-5-methyl-thiazolo[5,4-d]pyrimidin-7-ylamino]-N,N-dimethyl-benzenesulfonamide]",IC50,human TRPV1,2 nM
same,IC50,rat TRPV1,2 nM
"CS(=O)(=O)c1ccc(Nc2ncnc3sc(Nc4c(Cl)cccc4Cl)nc23)cc1F [Example 82, N^2-(2,6-Dichloro-phenyl)-N^7-(3-fluoro-4-methanesulfonyl-phenyl)-thiazolo[5,4-d]pyrimidine-2,7-diamine]",IC50,human TRPV1,5 nM
same,IC50,rat TRPV1,1 nM
"Cc1ccccc1Nc1nc2c(Nc3ccc(S(=O)(=O)N4CCCC4)cc3)ncnc2s1 [Example 83, N^7-[4-(Pyrrolidine-1-sulfonyl)-phenyl]-N^2-o-tolyl-thiazolo[5,4-d]pyrimidine-2,7-diamine]",IC50,human TRPV1,3 nM
same,IC50,rat TRPV1,2 nM
"Cc1nc(Nc2ccc(C(C)C)cc2)c2nc(Nc3c(Cl)cccc3Cl)sc2n1 [Example 84, N^2-(2,6-Dichloro-phenyl)-N^7-(4-isopropyl-phenyl)-5-methyl-thiazolo[5,4-d]pyrimidine-2,7-diamine]",IC50,human TRPV1,4 nM
same,IC50,rat TRPV1,2 nM
"Cc1nc(Nc2ccc(S(=O)(=O)N(C)C)cc2)c2nc(Nc3c(C)cccc3C)sc2n1 [Example 85, 4-[2-(2,6-Dimethyl-phenylamino)-5-methyl-thiazolo[5,4-d]pyrimidin-7-ylamino]-N,N-dimethyl-benzenesulfonamide]",IC50,human TRPV1,4 nM
same,IC50,rat TRPV1,3 nM
"CC(=O)c1ccc(Nc2nc(C)nc3sc(Nc4c(Cl)cccc4Cl)nc23)cc1 [Example 86, 1-{4-[2-(2,6-Dichloro-phenylamino)-5-methyl-thiazolo[5,4-d]pyrimidin-7-ylamino]-phenyl}-ethanone]",IC50,human TRPV1,5 nM
same,IC50,rat TRPV1,3 nM
"CS(=O)(=O)c1ccc(Nc2ncnc3sc(Nc4c(Cl)cccc4Cl)nc23)cc1 [Example 87, N^2-(2,6-Dichloro-phenyl)-N^7-(4-methanesulfonyl-phenyl)-thiazolo[5,4-d]pyrimidine-2,7-diamine]",IC50,human TRPV1,6 nM
same,IC50,rat TRPV1,4 nM
"CN1CCN(S(=O)(=O)c2ccc(Nc3ncnc4sc(Nc5c(Cl)cccc5Cl)nc34)cc2)CC1 [Example 88, N^2-(2,6-Dichloro-phenyl)-N^7-[4-(4-methyl-piperazine-1-sulfonyl)-phenyl]-thiazolo[5,4-d]pyrimidine-2,7-diamine]",IC50,human TRPV1,7 nM
same,IC50,rat TRPV1,4 nM
"Cc1nc(Nc2ccc(S(=O)(=O)C(F)(F)F)cc2)c2nc(Nc3c(C)cccc3C)sc2n1 [Example 90, N^2-(2,6-Dimethyl-phenyl)-5-methyl-N^7-(4-trifluoromethanesulfonyl-phenyl)-thiazolo[5,4-d]pyrimidine-2,7-diamine]",IC50,human TRPV1,7 nM
same,IC50,rat TRPV1,15 nM
"Cc1cccc(C)c1Nc1nc2c(Nc3ccc(S(=O)(=O)N4CCOCC4)cc3)ncnc2s1 [Example 91, N^2-(2,6-Dimethyl-phenyl)-N^7-[4-(morpholine-4-sulfonyl)-phenyl]-thiazolo[5,4-d]pyrimidine-2,7-diamine]",IC50,human TRPV1,7 nM
same,IC50,rat TRPV1,1 nM
"Cc1nc(Nc2ccc(S(=O)(=O)N3CCCC3)cc2)c2nc(Nc3c(C)cccc3C)sc2n1 [Example 92, N^2-(2,6-Dimethyl-phenyl)-5-methyl-N^7-[4-(pyrrolidine-1-sulfonyl)-phenyl]-thiazolo[5,4-d]pyrimidine-2,7-diamine]",IC50,human TRPV1,8 nM
same,IC50,rat TRPV1,2 nM
"Cc1nc(Nc2ccc(S(=O)(=O)C(C)C)cc2)c2nc(Nc3c(Cl)cccc3Cl)sc2n1 [Example 93, N^2-(2,6-Dichloro-phenyl)-5-methyl-N^7-[4-(propane-2-sulfonyl)-phenyl]-thiazolo[5,4-d]pyrimidine-2,7-diamine]",IC50,human TRPV1,8 nM
same,IC50,rat TRPV1,10 nM
"CSc1ccc(Nc2nc(C)nc3sc(Nc4c(Cl)cccc4Cl)nc23)cc1 [Example 94, N^2-(2,6-Dichloro-phenyl)-5-methyl-N^7-(4-methylsulfanyl-phenyl)-thiazolo[5,4-d]pyrimidine-2,7-diamine]",IC50,human TRPV1,8 nM
same,IC50,rat TRPV1,3 nM
"Cc1nc(Nc2ccc(S(C)(=O)=O)cc2)c2nc(Nc3c(C)cccc3C)sc2n1 [Example 95, N^2-(2,6-Dimethyl-phenyl)-N^7-(4-methanesulfonyl-phenyl)-5-methyl-thiazolo[5,4-d]pyrimidine-2,7-diamine]",IC50,human TRPV1,10 nM
same,IC50,rat TRPV1,7 nM
"Cc1nc(Nc2ccc(C#N)cc2)c2nc(Nc3c(Cl)cccc3Cl)sc2n1 [Example 96, 4-[2-(2,6-Dichloro-phenylamino)-5-methyl-thiazolo[5,4-d]pyrimidin-7-ylamino]-benzonitrile]",IC50,human TRPV1,12 nM
same,IC50,rat TRPV1,9 nM
"Cc1cccc(C)c1Nc1nc2c(Nc3ccc(S(C)(=O)=O)c(F)c3)ncnc2s1 [Example 97, N^2-(2,6-Dimethyl-phenyl)-N^7-(3-fluoro-4-methanesulfonyl-phenyl)-thiazolo[5,4-d]pyrimidine-2,7-diamine]",IC50,human TRPV1,12 nM
same,IC50,rat TRPV1,32 nM
"Cc1cccc(C)c1Nc1nc2c(Nc3ccc(S(=O)(=O)N(C)C)cc3)ncnc2s1 [Example 98, 4-[2-(2,6-Dimethyl-phenylamino)-thiazolo[5,4-d]pyrimidin-7-ylamino]-N,N-dimethyl-benzenesulfonamide]",IC50,human TRPV1,15 nM
same,IC50,rat TRPV1,7 nM
"Cc1cccc(C)c1Nc1nc2c(Nc3ccc(S(=O)(=O)C(F)(F)F)cc3)ncnc2s1 [Example 99, N^2-(2,6-Dimethyl-phenyl)-N^7-(4-trifluoromethanesulfonyl-phenyl)-thiazolo[5,4-d]pyrimidine-2,7-diamine]",IC50,human TRPV1,17 nM
same,IC50,rat TRPV1,4 nM
"FC(F)(F)c1ccc(Nc2nc(NCCCN3CCOCC3)nc3sc(Nc4c(Cl)cccc4Cl)nc23)cc1 [Example 100, N^2-(2,6-Dichloro-phenyl)-N^5-(3-morpholin-4-yl-propyl)-N^7-(4-trifluoromethyl-phenyl)-thiazolo[5,4-d]pyrimidine-2,5,7-triamine]",IC50,human TRPV1,17 nM
same,IC50,rat TRPV1,6 nM
"CC(C)Nc1nc(Nc2ccc(C(F)(F)F)cc2)c2nc(Nc3c(Cl)cccc3Cl)sc2n1 [Example 101, N^2-(2,6-Dichloro-phenyl)-N^5-isopropyl-N^7-(4-trifluoromethyl-phenyl)-thiazolo[5,4-d]pyrimidine-2,5,7-triamine]",IC50,human TRPV1,18 nM
same,IC50,rat TRPV1,12 nM
"Cc1nc(Nc2ccc(S(=O)(=O)C(C)C)cc2)c2nc(Nc3c(C)cccc3C)sc2n1 [Example 102, N^2-(2,6-Dimethyl-phenyl)-5-methyl-N^7-[4-(Propane-2-sulfonyl)-phenyl]-thiazolo[5,4-d]pyrimidine-2,7-diamine]",IC50,human TRPV1,18 nM
same,IC50,rat TRPV1,19 nM
"Cc1nc(Nc2ccc(SC(C)C)cc2)c2nc(Nc3c(Cl)cccc3Cl)sc2n1 [Example 103, N^2-(2,6-Dichloro-phenyl)-N^7-(4-isopropylsulfanyl-phenyl)-5-methyl-thiazolo[5,4-d]pyrimidine-2,7-diamine]",IC50,human TRPV1,20 nM
same,IC50,rat TRPV1,33 nM
